Columns and labels:
[1] = test system: Rattus norvegicus; assay: Increase in voided volume in po dosed Sprague-Dawley rat benign prostatic hyperplasia model administered 20 mins followed by distilled watering loading measured for 2 hrs; type: functional; conditions: read-out: MED
[2] = Half life in rat at 20 mg/kg, ig via oral gavage; type: ADME, organism-based; conditions: in vivo
[3] = Oral bioavailability in rat at 20 mg/kg, ig via gavage; type: ADME, organism-based; conditions: in vivo
[4] = test system: Mus musculus; assay: Acute toxicity in Kunming mouse assessed as effect on body weight at 500 mg/kg, po administered as single dose measured over 7 days; type: organism-based; conditions: in vivo, 168 h
[5] = AUC (0 to t) in rat at 20 mg/kg, ig via oral gavage; type: ADME, organism-based; conditions: in vivo
[6] = biological target: T1, Alpha-1A adrenergic receptor (Homo sapiens) (UniProt P35348); assay: Antagonist activity at human full-length N-terminal SNAP-tagged alpha1A adrenoceptor expressed in HEK293 cells assessed as inhibition of agonist-induced calcium mobilization at 10 uM preincubated for 10 mins followed by agonist addition by fluo-4 AM dye-based assay relative to control; type: functional, cell-based
T1 sequence (whole entry): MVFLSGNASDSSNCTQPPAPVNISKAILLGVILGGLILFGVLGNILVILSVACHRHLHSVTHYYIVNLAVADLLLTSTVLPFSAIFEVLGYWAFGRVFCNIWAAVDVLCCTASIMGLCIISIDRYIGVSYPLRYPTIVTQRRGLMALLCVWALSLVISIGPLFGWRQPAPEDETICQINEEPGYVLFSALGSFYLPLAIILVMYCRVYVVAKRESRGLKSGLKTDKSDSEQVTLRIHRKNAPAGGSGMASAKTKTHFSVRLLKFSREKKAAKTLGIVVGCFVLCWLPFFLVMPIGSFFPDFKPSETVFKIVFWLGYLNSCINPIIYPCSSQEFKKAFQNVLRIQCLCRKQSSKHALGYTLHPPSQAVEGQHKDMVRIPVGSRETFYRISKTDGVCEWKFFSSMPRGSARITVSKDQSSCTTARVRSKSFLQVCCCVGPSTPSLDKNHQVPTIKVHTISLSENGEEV

[7] = Cmax in rat at 20 mg/kg, ig via oral gavage; type: ADME, organism-based; conditions: in vivo
[8] = Selectivity ratio of IC50 for alpha1B adrenoceptor in Sprague-Dawley rat aorta to IC50 for alpha1A adrenoceptor in Sprague-Dawley rat urethra
[9] = Tmax in rat at 20 mg/kg, ig via oral gavage; type: ADME, organism-based; conditions: in vivo
[10] = biological target: T2, Alpha-1A adrenergic receptor (Rattus norvegicus, UniProt P43140); assay: Antagonist activity at alpha1A adrenoceptor in Sprague-Dawley rat urethra assessed as inhibition of norepinephrine-induced smooth muscle contraction after 20 mins
T2 sequence (P43140 whole entry): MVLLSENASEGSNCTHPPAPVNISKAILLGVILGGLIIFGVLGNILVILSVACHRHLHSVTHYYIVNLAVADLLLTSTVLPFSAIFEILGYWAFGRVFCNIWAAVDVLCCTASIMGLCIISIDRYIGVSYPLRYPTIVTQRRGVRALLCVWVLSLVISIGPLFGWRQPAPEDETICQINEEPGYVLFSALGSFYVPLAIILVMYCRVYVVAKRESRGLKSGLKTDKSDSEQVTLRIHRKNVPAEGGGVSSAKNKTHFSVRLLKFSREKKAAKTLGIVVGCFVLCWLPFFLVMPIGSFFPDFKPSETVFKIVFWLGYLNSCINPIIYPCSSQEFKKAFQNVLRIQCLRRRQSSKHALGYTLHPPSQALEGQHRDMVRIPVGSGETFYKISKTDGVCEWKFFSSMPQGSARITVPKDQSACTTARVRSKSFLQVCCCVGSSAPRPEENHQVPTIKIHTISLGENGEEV

[11] = biological target: Voltage-gated inwardly rectifying potassium channel KCNH2 (Homo sapiens, UniProt Q12809); assay: Inhibition of human ERG
[12] = Mean residence time in rat at 20 mg/kg, ig via oral gavage; type: ADME, organism-based; conditions: in vivo
[13] = AUC (0 to t) in rat at 10 mg/kg, iv; type: ADME, organism-based; conditions: in vivo
[14] = AUC (0 to infinity) in rat at 10 mg/kg, iv; type: ADME, organism-based; design: dose 10 mg/kg, time infinity, route intravenous; conditions: in vivo
[15] = Cmax in rat at 10 mg/kg, iv; type: ADME, organism-based; design: dose 10 mg/kg, route intravenous; conditions: in vivo
[16] = species: Homo sapiens; assay: Selectivity ratio of IC50 for human full-length N-terminal SNAP-tagged alpha1B adrenoceptor to IC50 for human full-length N-terminal SNAP-tagged alpha1A adrenoceptor
[17] = test system: Mus musculus; assay: Acute toxicity in Kunming mouse assessed as mortality at 500 mg/kg, po administered as single dose measured over 7 days; type: organism-based; conditions: in vivo, 168 h
[18] = biological target: T3, Alpha-1B adrenergic receptor (Rattus norvegicus, UniProt P15823); assay: Antagonist activity at alpha1B adrenoceptor in Sprague-Dawley rat aorta assessed as inhibition of norepinephrine-induced smooth muscle contraction after 20 mins
T3 sequence (P15823 whole entry): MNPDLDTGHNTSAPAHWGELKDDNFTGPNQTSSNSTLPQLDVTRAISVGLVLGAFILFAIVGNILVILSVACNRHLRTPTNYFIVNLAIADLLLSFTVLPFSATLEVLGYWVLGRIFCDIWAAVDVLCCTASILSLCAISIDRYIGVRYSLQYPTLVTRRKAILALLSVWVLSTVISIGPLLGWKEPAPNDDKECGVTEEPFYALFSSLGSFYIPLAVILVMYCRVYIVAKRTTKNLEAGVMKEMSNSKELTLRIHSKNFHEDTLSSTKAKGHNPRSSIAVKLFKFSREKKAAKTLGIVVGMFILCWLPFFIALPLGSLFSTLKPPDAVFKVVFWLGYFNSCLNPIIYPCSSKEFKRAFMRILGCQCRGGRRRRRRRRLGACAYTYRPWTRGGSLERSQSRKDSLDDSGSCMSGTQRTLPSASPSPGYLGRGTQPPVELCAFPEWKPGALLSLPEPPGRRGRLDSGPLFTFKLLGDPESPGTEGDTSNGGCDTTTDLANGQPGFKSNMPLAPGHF

[19] = AUC (0 to infinity) in rat at 20 mg/kg, ig via oral gavage; type: ADME, organism-based; conditions: in vivo
[20] = test system: Mus musculus; assay: Acute toxicity in Kunming mouse assessed as effect on fur colour at 500 mg/kg, po administered as single dose measured over 7 days; type: organism-based; conditions: in vivo, 168 h
[21] = Half life in rat at 10 mg/kg, iv; type: ADME, organism-based; conditions: in vivo
[22] = Mean residence time in rat at 10 mg/kg, iv; type: ADME, organism-based; conditions: in vivo
[23] = Apparent clearance in rat at 10 mg/kg, iv; type: ADME, organism-based; conditions: in vivo, read-out: CL(app) (converted)
[24] = test system: Mus musculus; assay: Acute toxicity in Kunming mouse assessed as effect on behavior at 500 mg/kg, po administered as single dose measured over 7 days; type: organism-based; conditions: in vivo, 168 h

Chain of Voltage-gated inwardly rectifying potassium channel KCNH2 (Q12809 whole entry): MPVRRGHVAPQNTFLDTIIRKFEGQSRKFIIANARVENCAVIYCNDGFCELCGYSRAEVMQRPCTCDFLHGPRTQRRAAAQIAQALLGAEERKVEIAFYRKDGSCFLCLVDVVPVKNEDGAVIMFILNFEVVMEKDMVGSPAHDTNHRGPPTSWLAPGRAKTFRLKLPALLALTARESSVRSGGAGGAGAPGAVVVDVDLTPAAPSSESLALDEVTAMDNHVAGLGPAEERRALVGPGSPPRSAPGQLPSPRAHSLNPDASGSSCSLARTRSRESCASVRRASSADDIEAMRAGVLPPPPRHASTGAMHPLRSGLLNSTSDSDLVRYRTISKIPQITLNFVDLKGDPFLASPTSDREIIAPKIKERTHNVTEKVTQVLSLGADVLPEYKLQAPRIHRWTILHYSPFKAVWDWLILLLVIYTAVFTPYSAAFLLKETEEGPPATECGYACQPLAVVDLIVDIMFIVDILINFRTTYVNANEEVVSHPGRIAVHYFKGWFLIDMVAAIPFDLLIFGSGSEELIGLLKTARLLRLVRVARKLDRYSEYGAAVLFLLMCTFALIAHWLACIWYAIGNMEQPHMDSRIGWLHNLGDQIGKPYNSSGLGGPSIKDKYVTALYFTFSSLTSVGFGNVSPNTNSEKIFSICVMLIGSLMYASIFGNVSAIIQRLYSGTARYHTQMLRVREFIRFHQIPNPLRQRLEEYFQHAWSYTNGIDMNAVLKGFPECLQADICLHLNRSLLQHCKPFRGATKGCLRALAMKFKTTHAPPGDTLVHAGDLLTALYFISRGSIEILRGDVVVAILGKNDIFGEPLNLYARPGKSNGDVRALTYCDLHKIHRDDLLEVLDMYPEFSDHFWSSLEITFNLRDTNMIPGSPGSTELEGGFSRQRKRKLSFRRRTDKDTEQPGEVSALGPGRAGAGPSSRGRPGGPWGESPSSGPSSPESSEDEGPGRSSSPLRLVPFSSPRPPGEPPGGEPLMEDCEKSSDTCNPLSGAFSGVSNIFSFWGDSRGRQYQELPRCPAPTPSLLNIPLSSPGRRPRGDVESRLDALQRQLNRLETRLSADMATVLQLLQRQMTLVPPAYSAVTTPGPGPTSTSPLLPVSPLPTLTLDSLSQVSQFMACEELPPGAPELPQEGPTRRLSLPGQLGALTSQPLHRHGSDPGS

In the case of `COc1ccc2[nH]c3c(c2c1)C[C@H]1c2cc4c(cc2CCN1C3)OCO4`, the minimal effective dose [1] is reported as 3 mg/kg, the half-life [2] is reported as 1.18 h and the bioavailability [3] is reported as 60.9%. The Activity [4] was “Non-Toxic”, the AUC(0-t) [5] was 2270 ng·h/mL and the inhibition [6] was 100%. For the same compound, the Cmax [7] was 684 ng/mL, the “Ratio IC50” value [8] was >2083 and the Tmax [9] was 1 h. The IC50 [10] was 0.5 nM, the IC50 [11] was 13200 nM and the MRT [12] was 2.52 h. For the same compound, the AUC(0-t) [13] was 1870 ng·h/mL, the AUC(0-inf) [14] was 1880 ng·h/mL and the Cmax [15] was 855 ng/mL. The Ratio IC50 [16] was > 781, the Activity [17] was “Non-Toxic” and the IC50 [18] was > 1000 nM. The AUC(0-inf) [19] was 2280 ng·h/mL, the Activity [20] was “Non-Toxic” and the half-life [21] was 0.98 h. For the same compound, the MRT [22] was 1.79 h, the clearance [23] was 96.5 mL/min/kg and the Activity [24] was “Non-Toxic”.
